Experimental data published in patent US9980482B2, “Synergistic compositions with plant protection agents” (multiBIND biotec GmbH, priority 2013, dated 2018).

Columns and labels:
[1] = tested on: Candida parapsilosis and spores of Aspergillus niger; assay: summary of tests with Candida parapsilosis and spores of Aspergillus niger; format: cell-based; parameters: key to synergistic effect in mixtures: + = low but significant; ++ = good; +++ = very good; details: for concentration without sufficient antimicrobial activity: conventional plant protection agent alone; for synergistic effect in mixtures: plant protection agent in mixtures (M1-M7, Table 2)
Procedure: (§1) A specific in vitro test system was designed with certified tester strains from Candida parapsilosis (DSM 70125) and spores from Aspergillus niger (DSM 1957) to define antimicrobial activities and synergistic effects. In all experiments freshly grown cultures of the listed microorganisms were adjusted to a cell number of about 10^5 in a 200 μl volume of the test solutions. Test solutions are in general: a) sterile water (H2O) as a negative control, b) conventional plant protection agent alone c) specific mixtures of essential oils, detergents, metal ions and organic acids, d) a plant protection composition according to the invention.
(§2) After a residence time of 15 min. (Candida parapsilosis) or 60 min. (Aspergillus niger) at room temperature the 200 μl samples containing the microorganisms and the test solutions were diluted and were plated in dilutions of 0, 10^−1 and 10^−2 with aliquots of 10 μl each onto growth media. After an incubation period of 2-5 days at 30° C. the grown colonies were determined and documented by digital photography.

[2] = tested on: Candida parapsilosis (DSM 70125); assay: in vitro test of antimicrobial activity and synergistic effects on suspension cultures of Candida parapsilosis; format: cell-based; details: FIG. 4; for antimicrobial activities against Candida parapsilosis: agent alone at three concentrations (0.05%, 0.025%, 0.01%); for synergistic effect against Candida parapsilosis: in combination with mixture M1, all three concentrations (0.05%, 0.025%, 0.01%)
Procedure: as §1, §2

Molecule | concentration without sufficient antimicrobial activity [1] | synergistic effect in mixtures [1] | antimicrobial activities against Candida parapsilosis [2] | synergistic effect against Candida parapsilosis [2]
CCCOC(=O)NCCCN(C)C [F1, Propamocarb] | 0.05% | + |  | 
OC(Cc1ccccc1Cl)(Cn1nc[nH]c1=S)C1(Cl)CC1 (centres unmarked) [F2, Prothioconazole] | 0.05% | + |  | 
CCNC(=O)NC(=O)/C(C#N)=N/OC [F3, Curzate] | 0.01% | +++ | do not show sufficient antimicrobial activities | show synergistic effects
N#Cc1c(Cl)c(Cl)c(Cl)c(C#N)c1Cl [F5, Chlorothalonil] | 0.05% | ++ | do not show sufficient antimicrobial activities | show synergistic effects
CO/C=C(/C(=O)OC)c1ccccc1Oc1cc(Oc2ccccc2C#N)ncn1 [F6, Azoxystrobin] | 0.07% | + |  | 
[Cl-].[Cu+2].[Cu+2].[OH-].[OH-].[OH-] [F7, Copperoxychlorid] | 0.05% | ++ |  | 
Mancozeb [F4] | 0.05% | +++ | do not show sufficient antimicrobial activities | show synergistic effects
